Where two headings read alike, the source gives them in different places.
Experiments:
[1] = Cytotoxicity assay in MT-4 cells; assay type: cell-based; conditions: human; uninfected MT-4 cells, 5 days incubation, Cell Titer Glo; read-out: MT4 CC50
Outline: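 Uninfected MT-4 cells exposed to serially diluted compounds in RPMI with 10% FBS for 5 days at 37 °C. Viability by Cell Titer Glo chemiluminescence. Puromycin […] as baseline cytotoxicity control.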

HIV-1 (IIIB) = assay: Antiviral assay in MT-4 cells; assay type: cell-based
Outline: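 HIV-1 IIIB-infected MT-4 cells (fresh 1:250 virus stock dilution; mock-infected controls) incubated 5 days at 37 °C with serially diluted compounds in RPMI/10% FBS; 5 μM AZT as positive control. Cell viability read by CellTiter-Glo luminescence as measure of protection from viral replication.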

[2] = Human immunodeficiency virus 1, MT4, 120 h, HIV-1 IIIB in MT-4 cells, 5 days incubation, Cell Titer Glo, read-out: MT4 EC50

EC50 (HIV-1 (IIIB); [2]) [nM]	SMILES	CC50 at 5 days [1] [µM]	EC50 (HIV-1 (IIIB); Human immunodeficiency virus 1, IIIB, MT4, 120 h, read-out: MT4 EC50 (nM)) [nM]
0.518	CC1=NO[C@@]2(CC[C@H](C)N3C[C@H]2n2cc(C(=O)NCc4ccc(F)cc4F)c(=O)c(OC(=O)CCCCCCCCCCCCCCCCC(=O)O)c2C3=O)C1 [Example 76, 18-(((3′S,5S,7′R)-10′-((2,4-difluorobenzyl)carbamoyl)-3,3′-dimethyl-1′,11′-dioxo-1′,4′,5′,11′-tetrahydro-3′H,4H,7′H-spiro[isoxazole-5,6′-[2,7]methanopyrido[1,2-a][1,4]diazonin]-12′-yl)oxy)-18-oxooctadecanoic acid]	46	–
3.09	COC1=NO[C@@]2(CC[C@H](C)N3C[C@H]2n2cc(C(=O)NCc4ccc(F)cc4F)c(=O)c(OCOC(=O)OC[C@@H](C)OC)c2C3=O)C1 [Example 218, (((3′S,5S,7′R)-10′-((2,4-difluorobenzyl)carbamoyl)-3-methoxy-3′-methyl-1′,11′-dioxo-1′,4′,5′,11′-tetrahydro-3′H,4H,7′H-spiro[isoxazole-5,6′-[2,7]methanopyrido[1,2-a][1,4]diazonin]-12′-yl)oxy)methyl ((R)-2-methoxypropyl) carbonate]	32.5	–
3.64	CCCCCCCCCCCCOC(=O)Oc1c2n(cc(C(=O)NCc3ccc(F)cc3F)c1=O)[C@@H]1CN(C2=O)[C@@H](C)CC[C@]12CC(OC)=NO2 [Example 142, (3′S,5S,7′R)-10′-((2,4-difluorobenzyl)carbamoyl)-3-methoxy-3′-methyl-1′,11′-dioxo-1′,4′,5′,11′-tetrahydro-3′H,4H,7′H-spiro[isoxazole-5,6′-[2,7]methanopyrido[1,2-a][1,4]diazonin]-12′-yl dodecyl carbonate]	36.4	–
15.4	COCCOCCOC(=O)OCOc1c2n(cc(C(=O)NCc3ccc(F)cc3F)c1=O)[C@@H]1CN(C2=O)[C@@H](C)CC[C@]12CC(OC)=NO2 [Example 4, (((3′S,5S,7′R)-10′-((2,4-difluorobenzyl)carbamoyl)-3-methoxy-3′-methyl-1′,11′-dioxo-1′,4′,5′,11′-tetrahydro-3′H,4H,7′H-spiro[isoxazole-5,6′-[2,7]methanopyrido[1,2-a][1,4]diazonin]-12′-yl)oxy)methyl (2-(2-methoxyethoxy)ethyl) carbonate]	≥ 50	–
16.7	CCCCCCCCCCCCCCCCOC(=O)OCOc1c2n(cc(C(=O)NCc3ccc(F)cc3F)c1=O)[C@@H]1CN(C2=O)[C@@H](C)CC[C@]12CC(C)=NO2 [Example 194, (((3′S,5S,7′R)-10′-((2,4-difluorobenzyl)carbamoyl)-3,3′-dimethyl-1′,11′-dioxo-1′,4′,5′,11′-tetrahydro-3′H,4H,7′H-spiro[isoxazole-5,6′-[2,7]methanopyrido[1,2-a][1,4]diazonin]-12′-yl)oxy)methyl hexadecyl carbonate]	≥ 50	–
0.176	CCCCC(=O)OCOc1c2n(cc(C(=O)NCc3ccc(F)cc3F)c1=O)[C@@H]1CN(C2=O)[C@@H](C)CC[C@]12CC(C)=NO2 [Example 90, (((3′S,5S,7′R)-10′-((2,4-difluorobenzyl)carbamoyl)-3,3′-dimethyl-1′,11′-dioxo-1′,4′,5′,11′-tetrahydro-3′H,4H,7′H-spiro[isoxazole-5,6′-[2,7]methanopyrido[1,2-a][1,4]diazonin]-12′-yl)oxy)methyl pentanoate]	18.2	–
0.17	COC1=NO[C@@]2(CC[C@H](C)N3C[C@H]2n2cc(C(=O)NCc4ccc(F)cc4F)c(=O)c(OC(=O)OCCC(C)C)c2C3=O)C1 [Example 151, (3′S,5S,7′R)-10′-((2,4-difluorobenzyl)carbamoyl)-3-methoxy-3′-methyl-1′,11′-dioxo-1′,4′,5′,11′-tetrahydro-3′H,4H,7′H-spiro[isoxazole-5,6′-[2,7]methanopyrido[1,2-a][1,4]diazonin]-12′-yl isopentyl carbonate]	18.5	–
1.67	CCCCCCCCCCCCOC(=O)OCOc1c2n(cc(C(=O)NCc3ccc(F)cc3F)c1=O)[C@@H]1CN(C2=O)[C@@H](C)CC[C@]12CC(OC)=NO2 [Example 191, (((3′S,5S,7′R)-10′-((2,4-difluorobenzyl)carbamoyl)-3-methoxy-3′-methyl-1′,11′-dioxo-1′,4′,5′,11′-tetrahydro-3′H,4H,7′H-spiro[isoxazole-5,6′-[2,7]methanopyrido[1,2-a][1,4]diazonin]-12′-yl)oxy)methyl dodecyl carbonate]	≥ 50	–
0.153	CCCCCCOC(=O)Oc1c2n(cc(C(=O)NCc3ccc(F)cc3F)c1=O)[C@@H]1CN(C2=O)[C@@H](C)CC[C@]12CC(OC)=NO2 [Example 132, (3′S,5S,7′R)-10′-((2,4-difluorobenzyl)carbamoyl)-3-methoxy-3′-methyl-1′,11′-dioxo-1′,4′,5′,11′-tetrahydro-3′H,4H,7′H-spiro[isoxazole-5,6′-[2,7]methanopyrido[1,2-a][1,4]diazonin]-12′-yl hexyl carbonate]	17.8	–
1.9	COC1=NO[C@@]2(CC[C@H](C)N3C[C@H]2n2cc(C(=O)NCc4ccc(F)cc4F)c(=O)c(OCOC(=O)OCC(C)C)c2C3=O)C1 [Example 200, (((3′S,5S,7′R)-10′-((2,4-difluorobenzyl)carbamoyl)-3-methoxy-3′-methyl-1′,11′-dioxo-1′,4′,5′,11′-tetrahydro-3′H,4H,7′H-spiro[isoxazole-5,6′-[2,7]methanopyrido[1,2-a][1,4]diazonin]-12′-yl)oxy)methyl isobutyl carbonate]	15.2	–
1.94	CCCCCCCCC(=O)Oc1c2n(cc(C(=O)NCc3ccc(F)cc3F)c1=O)[C@@H]1CN(C2=O)[C@@H](C)CC[C@]12CC(OC)=NO2 [Example 42, (3′S,5S,7′R)-10′-((2,4-difluorobenzyl)carbamoyl)-3-methoxy-3′-methyl-1′,11′-dioxo-1′,4′,5′,11′-tetrahydro-3′H,4H,7′H-spiro[isoxazole-5,6′-[2,7]methanopyrido[1,2-a][1,4]diazonin]-12′-yl nonanoate]	40.6	–
1.72	CC1=NO[C@@]2(CC[C@H](C)N3C[C@H]2n2cc(C(=O)NCc4ccc(F)cc4F)c(=O)c(OC(=O)OCCCCC(C)C)c2C3=O)C1 [Example 154, (3′S,5S,7′R)-10′-((2,4-difluorobenzyl)carbamoyl)-3,3′-dimethyl-1′,11′-dioxo-1′,4′,5′,11′-tetrahydro-3′H,4H,7′H-spiro[isoxazole-5,6′-[2,7]methanopyrido[1,2-a][1,4]diazonin]-12′-yl (5-methylhexyl) carbonate]	17.2	–
3.62	CC1=NO[C@@]2(CC[C@H](C)N3C[C@H]2n2cc(C(=O)NCc4ccc(F)cc4F)c(=O)c(OCOC(=O)CCCCC(C)C)c2C3=O)C1 [Example 115, (((3′S,5S,7′R)-10′-((2,4-difluorobenzyl)carbamoyl)-3,3′-dimethyl-1′,11′-dioxo-1′,4′,5′,11′-tetrahydro-3′H,4H,7′H-spiro[isoxazole-5,6′-[2,7]methanopyrido[1,2-a][1,4]diazonin]-12′-yl)oxy)methyl 6-methylheptanoate]	16.2	–
2.01	CCCCCCCCCCCC(=O)Oc1c2n(cc(C(=O)NCc3ccc(F)cc3F)c1=O)[C@@H]1CN(C2=O)[C@@H](C)CC[C@]12CC(C)=NO2 [Example 47, (3′S,5S,7′R)-10′-((2,4-difluorobenzyl)carbamoyl)-3,3′-dimethyl-1′,11′-dioxo-1′,4′,5′,11′-tetrahydro-3′H,4H,7′H-spiro[isoxazole-5,6′-[2,7]methanopyrido[1,2-a][1,4]diazonin]-12′-yl dodecanoate]	22.6	–
4.84	CCCCCCCCCCCCCC(=O)Oc1c2n(cc(C(=O)NCc3ccc(F)cc3F)c1=O)[C@@H]1CN(C2=O)[C@@H](C)CC[C@]12CC(C)=NO2 [Example 13, (3′S,5S,7′R)-10′-((2,4-difluorobenzyl)carbamoyl)-3,3′-dimethyl-1′,11′-dioxo-1′,4′,5′,11′-tetrahydro-3′H,4H,7′H-spiro[isoxazole-5,6′-[2,7]methanopyrido[1,2-a][1,4]diazonin]-12′-yl tetradecanoate]	13.4	–
22.5	CCCCCCCCCCCCCCCC(=O)OCOc1c2n(cc(C(=O)NCc3ccc(F)cc3F)c1=O)[C@@H]1CN(C2=O)[C@@H](C)CC[C@]12CC(C)=NO2 [Example 105, (((3′S,5S,7′R)-10′-((2,4-difluorobenzyl)carbamoyl)-3,3′-dimethyl-1′,11′-dioxo-1′,4′,5′,11′-tetrahydro-3′H,4H,7′H-spiro[isoxazole-5,6′-[2,7]methanopyrido[1,2-a][1,4]diazonin]-12′-yl)oxy)methyl palmitate]	≥ 50	–
–	CC1=NO[C@@]2(CC[C@H](C)N3C[C@H]2n2cc(C(=O)NCc4ccc(F)cc4F)c(=O)c(OC(=O)/C=C/C(=O)O)c2C3=O)C1 [Example 75, (E)-4-(((3′S,5S,7′R)-10′-((2,4-difluorobenzyl)carbamoyl)-3,3′-dimethyl-1′,11′-dioxo-1′,4′,5′,11′-tetrahydro-3′H,4H,7′H-spiro[isoxazole-5,6′-[2,7]methanopyrido[1,2-a][1,4]diazonin]-12′-yl)oxy)-4-oxobut-2-enoic acid]	16.1	1.6
1.8	CCCC(=O)OCOc1c2n(cc(C(=O)NCc3ccc(F)cc3F)c1=O)[C@@H]1CN(C2=O)[C@@H](C)CC[C@]12CC(OC)=NO2 [Example 87, (((3′S,5S,7′R)-10′-((2,4-difluorobenzyl)carbamoyl)-3-methoxy-3′-methyl-1′,11′-dioxo-1′,4′,5′,11′-tetrahydro-3′H,4H,7′H-spiro[isoxazole-5,6′-[2,7]methanopyrido[1,2-a][1,4]diazonin]-12′-yl)oxy)methyl butyrate]	16.4	–

Reference: patent publication US20250122219A1 (priority 2023, published 2025)
